How the values were obtained:
[1] = system: ivy-leaved morning glory (Ipomoea hederacea); assay: Test G Post-Emergence Protocol; type: in vivo; conditions: Ipomoea, post-emergence, 312 h; for pest or weed control at 15.625 g/ha: 15.625 g ai/ha, evaluated after 13 days (100=total damage to plant; 0=no damage to plant), read-out: Morningglory, Ivy-leaved damage rating; for pest or weed control at 62.5 g/ha: 62.5 g ai/ha, read-out: Morningglory, Ivy-leaved damage rating (100=total damage to plant; 0=no damage to plant); for pest or weed control at 62.5 g/ha / pest or weed control at 250 g/ha: evaluated after 13 days; for pest or weed control at 250 g/ha: 250 g ai/ha, read-out: damage to plant, Morningglory, Ivy-leaved (100=total damage to plant; 0=no damage to plant)
In short: (§1)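 Sow in soil; grow 8 d (24/16 °C, 14 h light, 65% humidity); spray 15.625/62.5/250 g/ha in acetone:water 50:50 + 0.5% Tween 20; grow on, water twice daily; score damage 0–100 at 13 d.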

corn (Zea mays) = assay: Test G Post-Emergence Protocol; type: in vivo; conditions: Zea mays, post-emergence, 312 h; for plant injury at 15.625 g/ha: 15.625 g ai/ha, evaluated after 13 days (100=total damage to plant; 0=no damage to plant), read-out: Corn damage rating; for plant injury at 62.5 g/ha: 62.5 g ai/ha, read-out: Corn damage rating (100=total damage to plant; 0=no damage to plant); for plant injury at 62.5 g/ha / plant injury at 250 g/ha: evaluated after 13 days; for plant injury at 250 g/ha: 250 g ai/ha, read-out: damage to plant, Corn (100=total damage to plant; 0=no damage to plant)
In short: as §1

[2] = system: giant foxtail (Setaria faberi); assay: Test G Post-Emergence Protocol; type: in vivo; conditions: Setaria faberi, post-emergence, 312 h; for pest or weed control at 15.625 g/ha: 15.625 g ai/ha, evaluated after 13 days (100=total damage to plant; 0=no damage to plant), read-out: Foxtail, Giant damage rating; for pest or weed control at 62.5 g/ha: 62.5 g ai/ha, read-out: Foxtail, Giant damage rating (100=total damage to plant; 0=no damage to plant); for pest or weed control at 62.5 g/ha / pest or weed control at 250 g/ha: evaluated after 13 days; for pest or weed control at 250 g/ha: 250 g ai/ha, read-out: damage to plant, Foxtail, Giant (100=total damage to plant; 0=no damage to plant)
In short: as §1

[3] = system: barnyardgrass (Echinochloa crus-galli); assay: Test G Post-Emergence Protocol; type: in vivo; conditions: Echinochloa crus-galli, post-emergence, 312 h; for pest or weed control at 15.625 g/ha: 15.625 g ai/ha, evaluated after 13 days (100=total damage to plant; 0=no damage to plant), read-out: Barnyardgrass damage rating; for pest or weed control at 62.5 g/ha: 62.5 g ai/ha, read-out: Barnyardgrass damage rating (100=total damage to plant; 0=no damage to plant); for pest or weed control at 62.5 g/ha / pest or weed control at 250 g/ha: evaluated after 13 days; for pest or weed control at 250 g/ha: 250 g ai/ha, read-out: damage to plant, Barnyardgrass (100=total damage to plant; 0=no damage to plant)
In short: as §1

[4] = system: redroot pigweed (Amaranthus retroflexus); assay: Test G Post-Emergence Protocol; type: in vivo; conditions: Amaranthus retroflexus, post-emergence, 312 h; for pest or weed control at 15.625 g/ha: 15.625 g ai/ha, evaluated after 13 days (100=total damage to plant; 0=no damage to plant), read-out: Pigweed, Redroot damage rating; for pest or weed control at 62.5 g/ha: 62.5 g ai/ha, read-out: Pigweed, Redroot damage rating (100=total damage to plant; 0=no damage to plant); for pest or weed control at 62.5 g/ha / pest or weed control at 250 g/ha: evaluated after 13 days; for pest or weed control at 250 g/ha: 250 g ai/ha, read-out: damage to plant, Pigweed, Redroot (100=total damage to plant; 0=no damage to plant)
In short: as §1

[5] = system: velvetleaf (Abutilon theophrasti); assay: Test G Post-Emergence Protocol; type: in vivo; conditions: Abutilon theophrasti, post-emergence, 312 h; for pest or weed control at 15.625 g/ha: 15.625 g ai/ha, evaluated after 13 days (100=total damage to plant; 0=no damage to plant), read-out: Velvetleaf damage rating; for pest or weed control at 62.5 g/ha: 62.5 g ai/ha, read-out: Velvetleaf damage rating (100=total damage to plant; 0=no damage to plant); for pest or weed control at 62.5 g/ha / pest or weed control at 250 g/ha: evaluated after 13 days; for pest or weed control at 250 g/ha: 250 g ai/ha, read-out: damage to plant, Velvetleaf (100=total damage to plant; 0=no damage to plant)
In short: as §1

SMILES	melting point [°C]	pest or weed control at 15.625 g/ha [1] [%]	pest or weed control at 62.5 g/ha [1] [%]	pest or weed control at 250 g/ha [1] [%]	plant injury at 15.625 g/ha (corn (Zea mays)) [%]	plant injury at 62.5 g/ha (corn (Zea mays)) [%]	plant injury at 250 g/ha (corn (Zea mays)) [%]	pest or weed control at 15.625 g/ha [2] [%]	pest or weed control at 62.5 g/ha [2] [%]	pest or weed control at 250 g/ha [2] [%]	pest or weed control at 15.625 g/ha [3] [%]	pest or weed control at 62.5 g/ha [3] [%]	pest or weed control at 250 g/ha [3] [%]	pest or weed control at 15.625 g/ha [4] [%]	pest or weed control at 62.5 g/ha [4] [%]	pest or weed control at 250 g/ha [4] [%]	pest or weed control at 15.625 g/ha [5] [%]	pest or weed control at 62.5 g/ha [5] [%]	pest or weed control at 250 g/ha [5] [%]
O=C1NC[C@H](c2cc(C(F)(F)F)ccn2)[C@H]1C(=O)Nc1cccc(F)c1F (racemic) [Compound 1376]	146 to 150	–	–	–	–	–	–	–	–	–	–	–	–	–	–	–	–	–	–
CN1C[C@@H](c2ccc(C(F)(F)F)cc2)[C@H](C(=O)Nc2ncc(C#N)s2)C1=O (racemic) [Compound 1528]	–	0	0	0	0	0	0	0	0	0	0	0	0	0	0	0	0	0	0
Cc1cc(NC(=O)[C@@H]2C(=O)N(C)C[C@H]2c2ccc(C(F)(F)F)cc2)n[nH]1 (racemic) [Compound 1532]	–	0	0	0	0	0	0	0	0	0	0	0	0	0	0	0	0	0	0
CN1C[C@@H](c2ccc(C(F)(F)F)cc2)[C@H](C(=O)Nc2cc[nH]n2)C1=O (racemic) [Compound 1533]	–	0	0	0	0	0	0	0	0	0	0	0	0	0	0	0	0	0	0
CN1C[C@@H](c2ccc(C(F)(F)F)cc2)[C@H](C(=O)Nc2nc[nH]n2)C1=O (racemic) [Compound 1534]	–	0	0	10	0	0	0	0	0	0	0	0	0	0	0	0	0	0	10
CN1C[C@@H](c2ccc(C(F)(F)F)cc2)[C@H](C(=O)Nc2cnccc2Cl)C1=O (racemic) [Compound 1541]	–	0	0	10	0	0	10	0	0	50	0	0	20	0	0	20	0	0	0
CN1C[C@@H](c2ccc(C(F)(F)F)cc2)[C@H](C(=O)Nc2ccc(C(F)(F)F)nc2Cl)C1=O (racemic) [Compound 1542]	–	0	0	0	0	0	0	0	0	0	0	0	0	0	0	0	0	0	0
CN1C[C@H](c2cc(F)cc(F)c2)[C@@H](C(=O)NC2CCc3ccccc32)C1=O (some centres unmarked) [Compound 755]	135 to 139	–	–	–	–	–	–	–	–	–	–	–	–	–	–	–	–	–	–
CN1C[C@H](c2nccs2)[C@@H](C(=O)Nc2ccccc2F)C1=O [Compound 773]	69.5 to 77	–	–	–	–	–	–	–	–	–	–	–	–	–	–	–	–	–	–
CN1C[C@H](c2nccs2)[C@@H](C(=O)Nc2cccc(F)c2F)C1=O [Compound 774]	133.9 to 140.7	–	–	–	–	–	–	–	–	–	–	–	–	–	–	–	–	–	–
Cc1ccccc1NC(=O)[C@H]1C(=O)N(C)C[C@@H]1c1ccc(C(F)(F)F)cc1 [Compound 1239]	123 to 127	–	–	–	–	–	–	–	–	–	–	–	–	–	–	–	–	–	–
C=CCOc1cccc(C2CN(C)C(=O)C2C(=O)Nc2ccccc2F)c1 (centres unmarked) [Compound 1329]	81 to 84	–	–	–	–	–	–	–	–	–	–	–	–	–	–	–	–	–	–
CN1CC[C@H](c2cccc(C(F)(F)F)c2)[C@@H](C(=O)Nc2cccc(F)c2F)C1=O [Compound 1330]	54 to 57	–	–	–	–	–	–	–	–	–	–	–	–	–	–	–	–	–	–
CN1CC[C@H](c2cccc(C(F)(F)F)c2)[C@@H](C(=O)Nc2ccccc2F)C1=O [Compound 1331]	113 to 116	–	–	–	–	–	–	–	–	–	–	–	–	–	–	–	–	–	–
CN1C[C@H](c2ccc(C(F)(F)F)nc2)[C@@H](C(=O)Nc2cccc(F)c2F)C1=O [Compound 1372]	188.1 to 192.4	–	–	–	–	–	–	–	–	–	–	–	–	–	–	–	–	–	–
O=C1NC[C@H](c2cccc(C(F)(F)F)n2)[C@H]1C(=O)Nc1cccc(F)c1F [Compound 1385]	139 to 142	–	–	–	–	–	–	–	–	–	–	–	–	–	–	–	–	–	–
O=C1NC[C@H](c2cncc(C(F)(F)F)c2)[C@H]1C(=O)Nc1cccc(F)c1F [Compound 1394]	206 to 209	–	–	–	–	–	–	–	–	–	–	–	–	–	–	–	–	–	–

— patent publication US12077503B2, “Substituted cyclic amides and their use as herbicides” (FMC CORPORATION, priority 2015, dated 2024)
